For three compounds, IC50 and Ki results are on record in ChEMBL document CHEMBL5223138, “Lead identification of novel tetrahydroimidazo[1,2-a]pyridine-5-carboxylic acid derivative as a potent heparanase-1 inhibitor” (Bioorg Med Chem Lett, 2023).

By IC50 is commonly meant the concentration that inhibits the measured activity by half. Lower therefore signals greater potency in that assay. For orientation: Ki means a measure of affinity in units of concentration, obtained from inhibition or displacement. Low readings indicate tighter binding, high ones weaker binding.

For one assay, the target named is T1, Heparanase (Homo sapiens, UniProt Q9Y251).
T1 sequence (Q9Y251 whole entry): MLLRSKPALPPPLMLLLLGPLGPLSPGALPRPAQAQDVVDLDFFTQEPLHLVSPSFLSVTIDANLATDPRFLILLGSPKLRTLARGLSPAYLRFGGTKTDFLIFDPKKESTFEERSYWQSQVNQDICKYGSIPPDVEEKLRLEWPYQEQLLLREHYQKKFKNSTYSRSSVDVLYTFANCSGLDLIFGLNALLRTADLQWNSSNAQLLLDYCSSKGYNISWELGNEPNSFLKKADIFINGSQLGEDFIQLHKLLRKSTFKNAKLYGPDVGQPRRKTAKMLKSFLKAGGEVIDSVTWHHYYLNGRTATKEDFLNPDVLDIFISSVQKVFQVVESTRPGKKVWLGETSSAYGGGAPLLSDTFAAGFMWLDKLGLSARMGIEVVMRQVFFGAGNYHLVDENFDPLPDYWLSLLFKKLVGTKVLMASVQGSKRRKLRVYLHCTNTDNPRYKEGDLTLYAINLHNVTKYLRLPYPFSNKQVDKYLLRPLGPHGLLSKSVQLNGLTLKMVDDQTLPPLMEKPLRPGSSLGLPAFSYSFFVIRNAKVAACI
The assay is described as follows: Inhibition of Heparanase-1 (unknown origin) by HTRF method. Background: In TR-FRET formats the signal depends on donor and acceptor labels being close together.

Assay [1] can be described thus: Binding affinity to bovine liver beta-glucuronidase. Further details: species or system Bos taurus.

Consider `CCCCCCCCCCCCCCCc1cc(O[C@@H]2O[C@H](C(=O)O)[C@@H](O)[C@H](O)[C@H]2O)cc(O)c1C(=O)Oc1cc(C)c(C(=O)O)c(O)c1`, for which the IC50 against Heparanase is 9.19 µM.

The compound `O=C(O)[C@@H]1[C@@H](O)[C@H](O)[C@@H](O)c2nccn21` registered an inhibitory constant (Ki) in assay [1] of 0.012 µM.

Turning to `O=C(O)[C@@H]1[C@@H](O)[C@H](O)[C@@H](O)c2nc(CCc3ccc(C(F)(F)F)cc3)cn21`, the midpoint of inhibition against Heparanase, the IC50, lay at 3.41 µM.
